In US20120252855A1, “Methods For Treating Degenerative Diseases/Injuries” (priority 2003, published 2012):

Key:
[1] = system: early CD34+ progenitor cells from human bone marrow; assay: CD34+ Progenitor Cell Proliferation Assay; assay type: cell-based
Procedure: Compounds are tested for their ability in stimulating the survival and proliferation of early CD34+ progenitor cells from human bone marrow. In this assay, purified human CD34+ progenitor cells are incubated in liquid culture with test compounds for up to 7 days and the number of cells expressing the early stem cell marker CD34 are then measured by flow cytometry and compared to untreated cells (see Liu et al. Bone Marrow Transplantation. 24:247-52, 1999).

[2] = system: Human marrow progenitor CD34+ cells; assay: CD34+ Progenitor Cell Proliferation Assay Experiment 2; assay type: cell-based
Procedure: Human marrow progenitor CD34+ cells were washed in SFEM, counted and brought to 2×10^5/mL in 24-well plates and incubated for 7 days in the presence of compound or rhTpo. Dilutions of 3′-{N′-[1-(3,4-Dimethylphenyl)-3-methyl-5-oxo-1,5-dihydropyrazol-4-ylidene]hydrazino}-2′-hydroxybiphenyl-3-carboxylic acid bis-(monoethanolamine) were made in distilled water to equal 0, 0.3, 1 and 3 uM final concentration. Dilutions of 3-{N′-[1-(3,4-dimethylphenyl)-3-methyl-5-oxo-1,5-dihydropyrazol-4-ylidene]hydrazino}-2-hydroxy-3′-tetrazol-5-ylbiphenyl disodium salt were made in DMSO to equal 0, 0.3, 1 and 3 uM final concentration in 0.1% DMSO. Recombinant human TPO at a final concentration of 100 ng/mL was used as a positive control. At day 7, cells were counted and flow cytometry was performed using FITC-CD34.

With “rhTpo: Recombinant human TPO, used as a positive control at 100 ng/mL” the “increase in the number of CD34+ cells” value ([1]; rhTpo 100 ng/ml, same experiment as E1) was 2 fold, the “increase in the number of CD34+ cells” value ([2]; rhTpo 100 ng/ml positive control, experiment with the bis-(monoethanolamine) salt, day 7) was 15 fold and the “increase in the number of CD34+ cells” value ([2]; rhTpo 100 ng/ml positive control, experiment with the tetrazole disodium salt, day 7) was 3.4 fold.
For `CC1=NN(c2ccc(C)c(C)c2)C(=O)C1=NNc1cccc(-c2cccc(C(=O)O)c2)c1O.NCCO.NCCO` [3′-{N′-[1-(3,4-Dimethylphenyl)-3-methyl-5-oxo-1,5-dihydropyrazol-4-ylidene]hydrazino}-2′-hydroxybiphenyl-3-carboxylic acid bis-(monoethanolamine)], the “increase in the number of CD34+ cells” value ([2]; compound at 3 uM, dilutions in distilled water, 7 days, FITC-CD34 flow cytometry) was 3 fold.
In the case of `CC1=NN(c2ccc(C)c(C)c2)C(=O)C1=NNc1cccc(-c2cccc(-c3nnn[nH]3)c2)c1O.[Na].[Na]` [3-{N′-[1-(3,4-dimethylphenyl)-3-methyl-5-oxo-1,5-dihydropyrazol-4-ylidene]hydrazino}-2-hydroxy-3′-tetrazol-5-ylbiphenyl disodium salt], the “increase in the number of CD34+ cells” value ([2]; compound at 3 uM in 0.1% DMSO, 7 days, FITC-CD34 flow cytometry) is reported as 3.6 fold.
`CC1=NN(c2ccc(C(F)(F)F)cc2)C(=O)C1=NNc1cccc(-c2cccc(C(=O)O)c2)c1O` [3′-{N′-[3-methyl-5-oxo-1-(4-trifluoromethylphenyl)-1,5-dihydropyrazol-4-ylidene]hydrazino}-2′-hydroxybiphenyl-3-carboxylic acid] was tested, and the “increase in the number of CD34+ cells in liquid culture over vehicle controls” value ([1]; compound at 3 uM, days 2, 5 and 7, flow cytometry) was “up to 2 fold”.
